Measured values reported in PubChem BioAssay (NCI).
Values joined by “and” are separate entries in the source; they are usually repeats but may differ in a detail not shown here. Equal entries are not always repeated.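 96-well plates; 48 h exposure; 5 concentrations. Endpoints by linear interpolation between flanking doses. Not reached: highest tested concentration assigned. Abbreviation: GI50, concentration required for 50% inhibition of growth. TGI denotes the concentration required for complete inhibition of growth.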

Assays:
Assay in all cases: NCI tumour cell line growth inhibition, 48 h
OVCAR-4 ovarian = system: OVCAR-4 ovarian
OVCAR-3 ovarian = system: OVCAR-3 ovarian
UO-31 renal = system: UO-31 renal
T-47D breast = system: T-47D breast
SNB-75 CNS = system: SNB-75 CNS
786-0 renal = system: 786-0 renal
SK-MEL-5 melanoma = system: SK-MEL-5 melanoma
MDA-N = system: MDA-N
A549 NSCLC = system: A549 NSCLC
SK-MEL-2 melanoma = system: SK-MEL-2 melanoma
SW-620 colon = system: SW-620 colon
MDA-MB-435 = system: MDA-MB-435
OVCAR-8 ovarian = system: OVCAR-8 ovarian
A498 renal = system: A498 renal
HT29 colon = system: HT29 colon
U251 CNS = system: U251 CNS
DU-145 prostate = system: DU-145 prostate
TK-10 renal = system: TK-10 renal
HOP-62 NSCLC = system: HOP-62 NSCLC
HCT-15 colon = system: HCT-15 colon
SN12C renal = system: SN12C renal
NCI/ADR-RES ovarian = system: NCI/ADR-RES ovarian
SR leukemia = system: SR leukemia
ACHN renal = system: ACHN renal
MCF7 breast = system: MCF7 breast
K-562 leukemia = system: K-562 leukemia
MDA-MB-231 breast = system: MDA-MB-231 breast
PC-3 prostate = system: PC-3 prostate
CAKI-1 renal = system: CAKI-1 renal
COLO 205 colon = system: COLO 205 colon

CCN(CC)CCCNc1[nH]ncc2c(C)c3nc4ccccc4c3cc12
TGI (OVCAR-4 ovarian): 1750 nM and 2420 nM
GI50 (OVCAR-3 ovarian): 589 nM
TGI (OVCAR-3 ovarian): 3140 nM and 7110 nM
GI50 (UO-31 renal): 3710 nM
TGI (UO-31 renal): 14600 nM and 22000 nM
GI50 (T-47D breast): 1010 nM
TGI (T-47D breast): 17000 nM and 20200 nM
GI50 (SNB-75 CNS): 640 nM
TGI (SNB-75 CNS): 1990 nM and 5300 nM
GI50 (786-0 renal): 346 nM
TGI (786-0 renal): 1580 nM and 4570 nM
GI50 (SK-MEL-5 melanoma): 1410 nM
TGI (SK-MEL-5 melanoma): 2780 nM and 5050 nM
GI50 (MDA-N): 1190 nM
TGI (MDA-N): 2390 nM and 3990 nM
GI50 (A549 NSCLC): 398 nM
TGI (A549 NSCLC): 2940 nM and 14200 nM
GI50 (SK-MEL-2 melanoma): 1590 nM
TGI (SK-MEL-2 melanoma): 3110 nM and 7170 nM
GI50 (SW-620 colon): 319 nM and 529 nM
TGI (SW-620 colon): 2920 nM and 6980 nM
GI50 (MDA-MB-435): 754 nM
TGI (MDA-MB-435): 2120 nM and 4000 nM
GI50 (OVCAR-8 ovarian): 926 nM
TGI (OVCAR-8 ovarian): 4850 nM and 4580 nM
TGI (A498 renal): 4730 nM
GI50 (HT29 colon): 362 nM
TGI (HT29 colon): 1710 nM and 2830 nM
GI50 (U251 CNS): 428 nM
TGI (U251 CNS): 1710 nM and 3570 nM
GI50 (DU-145 prostate): 555 nM
TGI (DU-145 prostate): 11200 nM and 5620 nM
GI50 (TK-10 renal): 2830 nM
TGI (TK-10 renal): 12400 nM and 18100 nM
GI50 (HOP-62 NSCLC): 1080 nM
TGI (HOP-62 NSCLC): 2580 nM and 13300 nM
GI50 (HCT-15 colon): 6540 nM
TGI (HCT-15 colon): 21400 nM and 36500 nM
GI50 (SN12C renal): 585 nM
TGI (SN12C renal): 3870 nM and 3600 nM
GI50 (NCI/ADR-RES ovarian): 56100 nM
TGI (NCI/ADR-RES ovarian): 200000 nM
TGI (SR leukemia): 1120 nM
TGI (ACHN renal): 11600 nM and 9150 nM
GI50 (MCF7 breast): 219 nM
TGI (MCF7 breast): 756 nM and 5900 nM
GI50 (K-562 leukemia): 347 nM and 372 nM
TGI (K-562 leukemia): 1790 nM and 9540 nM
GI50 (MDA-MB-231 breast): 709 nM
TGI (MDA-MB-231 breast): 2650 nM and 2510 nM
GI50 (PC-3 prostate): 498 nM
TGI (PC-3 prostate): 2110 nM and 4550 nM
GI50 (CAKI-1 renal): 4070 nM
TGI (CAKI-1 renal): 18100 nM and 17700 nM
GI50 (COLO 205 colon): 490 nM
TGI (COLO 205 colon): 1750 nM and 3230 nM
